Measured values taken from patent publication US8058306B2, “Phenyl pyrrole aminoguanidine derivatives” (Action Pharma A/S, priority 2006, dated 2011).

How the values were obtained:
[1] = target: T1, murine MC1 receptor (Mus musculus, UniProt Q01727); assay: [125I]-NDP-MSH radio-ligand binding, MC1 receptor (B16-F1 melanoma cells); conditions: 90 min/22° C.
T1 construct: murine B16-F1 melanoma cells expressing MC1, but not other MC receptors, were used; endogenous in cells; host or cells: murine B16-F1 melanoma cells
T1 sequence (Q01727 whole entry): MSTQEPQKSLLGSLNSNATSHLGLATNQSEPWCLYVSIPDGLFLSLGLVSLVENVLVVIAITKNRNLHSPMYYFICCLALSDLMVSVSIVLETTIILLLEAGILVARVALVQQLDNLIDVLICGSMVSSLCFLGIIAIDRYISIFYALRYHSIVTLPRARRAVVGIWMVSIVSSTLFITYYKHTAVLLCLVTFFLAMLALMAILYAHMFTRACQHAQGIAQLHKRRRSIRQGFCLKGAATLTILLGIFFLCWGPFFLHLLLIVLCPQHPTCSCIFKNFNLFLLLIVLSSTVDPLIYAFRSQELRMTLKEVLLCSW
Experimental: (§1) Determination of binding affinities for MC receptors was performed by [^125I]-[Nle4,D-Phe7]α-MSH ([^125I]-NDP-MSH) radio-ligand binding. In short, murine B16-F1 melanoma cells expressing MC1, but not other MC receptors, were used for binding affinity studies against the murine MC1 receptor (Siegrist et al.; 1988, J. Recept. Res., 8(1-4):323-43). For human MC3, MC4 and MC5 receptor affinities human recombinant CHO cells were used (Schioth et al. 1997, Neuropeptides 31:565-71, 1997). Cells were suspended in HEPES buffer and by use of microwell plates radio-ligands, as well as test compound, in the concentration range of 10^−10 to 10^−6 were added. After incubation at 37° C. (22° C. for the MC1 receptor assay) separation of bound and free [^125I]-NDP-MSH was done by multiple washings with buffer.
(§2) The results were expressed as a percent of control specific binding obtained in the presence of the test compounds. The IC50 values (concentration causing a half-maximal inhibition of control specific binding) and Hill coefficients (nH) were determined by non-linear regression analysis of the competition curves using Hill equation curve fitting. The inhibition constants (Ki) were calculated from the Cheng Prusoff equation (Ki=IC50/(1+(L/KD)), where L=concentration of radio-ligand in the assay, and KD=affinity of the radio-ligand for the receptor).

[2] = target: T2, human MC3 receptor (Homo sapiens, UniProt P41968); assay: [125I]-NDP-MSH radio-ligand binding, MC3 (h) receptor (recombinant CHO cells); conditions: 60 min/37° C.
T2 construct: expressed in transfected cells; host or cells: CHO cells
T2 sequence (P41968 whole entry): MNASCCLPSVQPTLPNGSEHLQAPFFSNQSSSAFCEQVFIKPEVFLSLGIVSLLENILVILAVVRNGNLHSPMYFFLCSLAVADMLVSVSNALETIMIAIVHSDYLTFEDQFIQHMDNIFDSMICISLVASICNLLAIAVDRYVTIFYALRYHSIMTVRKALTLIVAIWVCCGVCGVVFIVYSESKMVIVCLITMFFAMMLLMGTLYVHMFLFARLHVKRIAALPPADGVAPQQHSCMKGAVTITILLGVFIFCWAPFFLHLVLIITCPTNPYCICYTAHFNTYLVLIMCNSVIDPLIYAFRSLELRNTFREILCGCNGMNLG
Experimental: as §1, §2

[3] = target: T3, human MC4 receptor (Homo sapiens, UniProt P32245); assay: [125I]-NDP-MSH radio-ligand binding, MC4 (h) receptor (recombinant CHO cells); conditions: 120 min/37° C.
T3 construct: expressed in transfected cells; host or cells: CHO cells
T3 sequence (P32245 whole entry): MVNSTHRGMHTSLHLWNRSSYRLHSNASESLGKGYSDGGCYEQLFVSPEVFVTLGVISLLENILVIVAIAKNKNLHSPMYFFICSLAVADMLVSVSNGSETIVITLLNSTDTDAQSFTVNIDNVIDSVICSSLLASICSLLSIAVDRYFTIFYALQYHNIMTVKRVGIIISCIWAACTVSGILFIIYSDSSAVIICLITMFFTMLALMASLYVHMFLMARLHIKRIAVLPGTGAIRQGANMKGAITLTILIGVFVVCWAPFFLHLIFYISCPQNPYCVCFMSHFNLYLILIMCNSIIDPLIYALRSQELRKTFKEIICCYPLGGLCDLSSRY
Experimental: as §1, §2

[4] = target: T4, human MC5 receptor (Homo sapiens, UniProt P33032); assay: [125I]-NDP-MSH radio-ligand binding, MC5 (h) receptor (recombinant CHO cells); conditions: 60 min/37° C.
T4 construct: expressed in transfected cells; host or cells: CHO cells
T4 sequence (P33032 whole entry): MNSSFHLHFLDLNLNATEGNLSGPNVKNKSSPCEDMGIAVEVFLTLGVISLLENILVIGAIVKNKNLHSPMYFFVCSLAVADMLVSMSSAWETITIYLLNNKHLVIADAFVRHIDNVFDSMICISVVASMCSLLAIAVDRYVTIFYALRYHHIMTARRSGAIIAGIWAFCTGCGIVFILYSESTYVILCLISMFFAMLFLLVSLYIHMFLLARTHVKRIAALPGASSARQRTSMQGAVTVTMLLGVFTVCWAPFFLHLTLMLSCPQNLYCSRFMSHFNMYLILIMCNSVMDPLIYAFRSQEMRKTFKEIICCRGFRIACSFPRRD
Experimental: as §1, §2

Measured: Ki

N=C(N)NN=Cc1cccn1-c1ccc(Cl)cc1 [Reference-compound 1, [1-[4-chlorophenyl)-1H-pyrrol-2-yl-methyleneamino]guanidinium acetate, reference compound]
> 1000 nM: all assays above

N=C(N)NN=Cc1cccn1-c1ccccc1[N+](=O)[O-] [Reference-compound 2, [1-[2-nitrophenyl)-1H-pyrrol-2-yl-methyleneamino]guanidinium acetate, reference compound]
> 1000 nM: all assays above
